Assays:
[1] = test system: sipB′-lacZ fusion (S. typhi strain Ty277); experiment: β-galactosidase activity of the sipB′-lacZ fusion in favourable LB medium; type: cell-based
Method: (§1) The favourable LB medium (high osmolarity and concentration of Ca^2+ions) was defined as being the standard LB medium modified so as to have a final NaCl concentration of 300 mM and a final Ca concentration of 5 mM.
(§2) Each of the strains described above was cultured at 37° C. on agar or in TCS broth. The P-galactosidase activity was determined using 4-methyl-umbelliferyl-p-D-galactopyranoside sold by the company Sigma, according to the technique of Klarsfeld et al. (Mol. Mibrobiol., 1994, 13, 585-597). The results, expressed in P-galactosidase units (fluorescence per hour and per OD600), represent the mean of the values obtained in at least three independent experiments. The standard deviations were less than 10% of the values presented.
(§3) For this, the S. typhi strains Ty267, Ty272 and Ty277, which carry the iagA′-lacZ, invF′-lacZ and sipB′-lacZ fusions, respectively, (see Table I), were cultured in the favourable LB or unfavourable LB medium.
(§4) The action of these two compounds on the expression of the iagA′-lacZ, invF′-lacZ and sipB′-lacZ fusions was studied by measuring the β-galactosidase activity expressed by these fusions as a function of the time of culturing (samples removed every two hours).

S. typhi = details: 1.25 g/l; cited from earlier work
[2] = test system: iagA′-lacZ fusion (S. typhi strain Ty267); experiment: β-galactosidase activity of the iagA′-lacZ fusion in favourable LB medium; type: cell-based; details: fatty acid as sodium salt, 5 mM in favourable LB medium, 6 hours at 37° C.; control 22022 ± 1177
Method: as §1
as §2, with “presented. […]” for “presented.”
The β-galactosidase activity of the iagA′-lacZ fusion was measured after incubation for 6 hours at 37° C. with shaking (200 rpm).
The S. typhi Ty267 strain (iagA′-lacZ fusion) was seeded into favourable LB medium and into favourable LB medium containing the fatty acid to be tested, in the form of its sodium salt, at the final concentration of 5 mM.

S. typhimurium C52 = experiment: Splenic colonization of C57Bl/6 mice infected orally with S. typhimurium C52; type: in vivo
Method: The 5-6-week-old female C57Bl/6 mice used in the context of this experiment originated from the IFFA-CREDO breeding centre (LArbresle, France).
(§5) They were infected orally in the following way. The Salmonella strains were cultured in TCS broth for 18 hours at 37° C. with shaking (200 rpm). This culture was then adjusted to […] (in the stationary growth phase, 1 OD600 =1.5 ×10^9 bacteria/ml), and then the number of viable bacteria was controlled by counting on TCS agar.
(§6) On the day of infection (DO), the drinking-water bottles of the mice were replaced with bottles containing 100 ml of drinking water to which the required number of bacteria had been added.
(§7) After infection for 24 hours ([…]), the bottles containing the contaminated drinking water were replaced with bottles containing uncontaminated drinking water.
(§8) Seven days after infection (D+7), the spleens of the mice infected in this way were removed and homogenized separately in 1 ml of physiological saline containing 0.7% of NaCl.
(§9) The number of viable bacteria per spleen was determined by plating out dilutions of the homogenate, onto TCS agar.
The effect of the composition of the drinking water on the splenic colonization by Salmonella was estimated using the Student's t test.
The S. typhimurium strain C52 was used to infect C57Bl/6 mice orally.
On this figure, the number of viable bacteria is given as the mean (log10) of the values ± the standard deviation. […]

[3] = test system: enteropathogenic and enterotoxigenic E. coli; details: 1.25 g/l; cited from earlier work
S. dublin 5917 = experiment: Splenic colonization of C57Bl/6 mice infected orally with S. dublin 5917; type: in vivo; details: 50 mM in drinking water pH 7.2-7.3; 10^7 bacteria per animal orally; distilled water 7.7 ± 0.4
Method: as §5, §6, §7, §8, §9
(§10) The S. dublin strain 5917 (Coynault & Norel, Microb. Pathog., 1999, 26, 299-305) and S. enteritidis strain LAS (Thorns et al., Microb. Pathog., 1996, 20, 235-246) were used to infect C57B1/6 mice orally at the dose of 10^7 bacteria per animal.

[4] = test system: tviB′-lacZ fusion (S. typhi strain Ty266); experiment: β-galactosidase activity of the tviB′-lacZ fusion (specificity control); type: cell-based; details: 5 mM in favourable LB medium
Method: as §2
The tviB gene has been characterized in S. typhi, and it encodes a GDP-dehydrogenase involved in the biosynthesis of the Vi antigen, which is the capsular polysaccharide of the typhus bacillus (Waxin et al., Res. Microbiol., 1993, 144, 363-371).
The results are reported on FIG. 4, in which it is seen that samples were taken every two hours in order to measure the OD600 (corresponding to the open symbols) and in order to determine the β-galactosidase activity (corresponding to the solid symbols).

[5] = test system: iagA′-lacZ fusion (S. typhi strain Ty267); experiment: β-galactosidase activity of the iagA′-lacZ fusion in favourable LB medium; type: cell-based
[6] = test system: Gram-positive or Gram-negative bacteria; details: 7.8 mM, in vitro; cited from earlier work
Vibrio cholerae = details: 1.25 g/l; cited from earlier work
S. enteritidis LA5 = experiment: Splenic colonization of C57Bl/6 mice infected orally with S. enteritidis LA5; type: in vivo; details: 50 mM in drinking water pH 7.2-7.3; 10^7 bacteria per animal orally; distilled water 7.5 ± 0.3
Method: as §5, §6, §7, §8, §9, §10

Salmonellae = experiment: Bactericidal or bacteriostatic effect on the Salmonellae at neutral pH; type: cell-based, Salmonella
[7] = test system: invF′-lacZ fusion (S. typhi strain Ty272); experiment: β-galactosidase activity of the invF′-lacZ fusion in favourable LB medium; type: cell-based
Method: as §1, §2, §3, §4

S. typhi strain Ty2 = experiment: Mobility by the U-tube culturing technique; type: cell-based; details: U tube supplemented with 5 mM
Method: The mobility of each strain was studied using the U-tube culturing technique (Popoff and Le Minor, Guide pour la preparation des serum anti-Salmonella (Guide for preparing salmonella antisera], 1997). When necessary, the culture media were supplemented with chloramphenicol (Cm) at 15 μg/ml.

[8] = concentration greater than or equal to 2.5 mM, favourable LB medium

CCCCCCCC(=O)[O-].[Na+] [sodium caprylate]
β-galactosidase activity expressed by the sipB′-lacZ fusion as % of that in favourable LB medium without the substance ([1]; 1 mM in favourable LB medium): ~20%
expression of the sipB gene (sipB′-lacZ fusion) [1, 8]: very strongly represses
bactericidal activity in vitro on S. typhi (S. typhi): no bactericidal activity
β-Galactosidase activity of the iagA′-lacZ fusion (Table VII) [2]: 445 ± 69 β-galactosidase units
Number of viable bacteria in the spleen (mean log10) (S. typhimurium C52; 5 mM in drinking water, infectious dose 5 × 10^7 bacteria): 6.9 ± 0.5 log10
Number of viable bacteria in the spleen (mean log10) (S. typhimurium C52; 5 mM in drinking water, infectious dose 10^7 bacteria): 6.8 ± 0.2 log10
Number of viable bacteria in the spleen (mean log10) (S. typhimurium C52; 10 mM in drinking water, infectious dose 5 × 10^7 bacteria): 6.5 ± 0.4 log10
Number of viable bacteria in the spleen (mean log10) (S. typhimurium C52; 10 mM in drinking water, infectious dose 10^7 bacteria): 6.5 ± 1.4 log10
factor of decrease of the bacterial load in the spleen (S. typhimurium C52; 50 mM in drinking water from two days before infection, 5 × 10^7 bacteria, seventh day of infection): approximately 1 000
Number of viable bacteria in the spleen (mean log10) (S. typhimurium C52; 50 mM in drinking water, infectious dose 10^7 bacteria, distilled water 7.2 ± 0.3): 2.3 ± 0.4 log10
protective effect (in words) (S. typhimurium C52; 5 or 10 mM in the drinking water, whatever the infectious dose): no longer has a significant protective effect
bactericidal activity in vitro on enteropathogenic and enterotoxigenic E. coli [3]: no bactericidal activity
Number of viable bacteria in the spleen (mean in log10) (S. dublin 5917): 2.1 ± 0.2 log10
effect on the expression of the tviB′-lacZ fusion [4]: no significant effect
β-galactosidase activity expressed by the iagA′-lacZ fusion as % of that in favourable LB medium without the substance ([5]; 1 mM in favourable LB medium): ~20%
expression of the iagA gene (iagA′-lacZ fusion) [5, 8]: very strongly represses
bacteriostatic or bactericidal effect on Gram-positive or Gram-negative bacteria [6]: no bacteriostatic or bactericidal effect
bactericidal activity in vitro on Vibrio cholerae (Vibrio cholerae): no bactericidal activity
Number of viable bacteria in the spleen (mean in log10) (S. enteritidis LA5): 3.7 ± 0.4 log10
bactericidal or bacteriostatic effect on the Salmonellae (Salmonellae): none of these compounds has any significant bactericidal or bacteriostatic effect
β-galactosidase activity expressed by the invF′-lacZ fusion as % of that in favourable LB medium without the substance ([7]; 1 mM in favourable LB medium): ~20%
expression of the invF gene (invF′-lacZ fusion) [7, 8]: very strongly represses
mobility of the Ty2 strain (S. typhi strain Ty2): same mobility

— US20040116523A1, “Use of c4-c10 acids for preventing gram-negative bacterial infections” (priority 2000, published 2004)
